Laboratory results taken from patent publication US10167300B2, “Metalloenzyme inhibitor compounds as fungicides” (priority 2014, dated 2019).
Like-named read-outs stand apart in the source and are kept apart here.

Tests used:
Format in all cases: in vivo, Mycosphaerella graminicola on wheat plants (variety Yuma)
[1] = tested on: Mycosphaerella graminicola; Anamorph: Septoria tritici; Bayer Code SEPTTR (standard laboratory isolate, SI SEPTTR); assay: Type A (high volume) assay, leaf blotch of wheat, standard laboratory SEPTTR isolate (SI SEPTTR); settings: Zymoseptoria tritici, standard laboratory isolate, high volume, 50 ppm, wheat (Yuma)
Procedure: (§1) Example A: Evaluation of Fungicidal Activity: Leaf Blotch of Wheat (Mycosphaerella graminicola; Anamorph: Septoria tritici; Bayer Code SEPTTR)
(§2) For Type A assays, technical grades of the experimental fungicides in Table 4 below were dissolved in acetone, and then mixed with nine volumes of water containing 110 ppm Triton X-100. The fungicide solutions were applied onto wheat seedlings using an automated booth sprayer. For Type B assays, emulsifiable concentrate (EC) formulations of technical grades of the experimental fungicides in Table 4 below were prepared at 10% (w/v), and then mixed with 150 volumes of 0.1% Trycol 5941. These solutions were applied onto wheat seedlings using an automated track sprayer at 200 L/ha. All sprayed plants were allowed to air dry prior to further handling.
(§3) Wheat plants (variety Yuma) were grown from seed in a greenhouse in 50% mineral soil/50% soil-less Metro mix until the first leaf was fully emerged, with 7-10 seedlings per pot. Prior to or after application of experimental fungicides, plants were inoculated either with spores of a standard laboratory SEPTTR isolate (SI SEPTTR) or with spores from a SEPTTR field isolate collected from Wellsbourne, England in 2012 (FI SEPTTR). After inoculation the plants were kept for 3 days at 20° C. in 100% relative humidity (one day in a dark dew chamber followed by two days in a lighted dew chamber). Plants were then transferred to a 20° C. greenhouse for disease development. When disease symptoms were fully expressed on untreated plants, infection levels on treated plants were assessed on a scale of 0 to 100 percent disease severity. Percent disease control was calculated using the ratio of disease severity on treated plants relative to untreated plants.

[2] = tested on: Mycosphaerella graminicola; Anamorph: Septoria tritici; Bayer Code SEPTTR (standard laboratory isolate, SI SEPTTR); assay: Type B (low volume, EC formulation, track sprayer 200 L/ha) assay, leaf blotch of wheat, standard laboratory SEPTTR isolate (SI SEPTTR); settings: Zymoseptoria tritici, 72 h, 100 g/ha
Procedure: as §1, §2, §3

[3] = Type B (low volume, EC formulation, track sprayer 200 L/ha) assay, leaf blotch of wheat, SEPTTR field isolate (FI SEPTTR); settings: Zymoseptoria tritici, 72 h, 100 g/ha
How it was run: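 Wheat seedlings (Yuma, first leaf emerged) sprayed with acetone/Triton X-100 solutions (Type A) or 10% EC diluted in 0.1% Trycol at 200 L/ha (Type B), inoculated before or after spraying. Inoculated plants held 3 days at 20 °C, 100% RH, then greenhouse; % disease control from severity versus untreated plants.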

[4] = 24 h, 1 Day Protectant, read-out: Disease Control, SI SEPTTR Type A Assay (50 ppm) 1 DP
[5] = 72 h, 3 Day Curative, read-out: Disease Control, SI SEPTTR Type A Assay (50 ppm) 3 DC
[6] = standard laboratory isolate, low volume EC, 3 Day Curative, wheat (Yuma), read-out: Disease Control, SI SEPTTR Type B Assay (100 g/ha) 3 DC
[7] = standard laboratory isolate, low volume EC, 3 Day Protectant, wheat (Yuma), read-out: Disease Control, SI SEPTTR Type B Assay (100 g/ha) 3 DP
[8] = field isolate, low volume EC, 3 Day Curative, wheat (Yuma), read-out: Disease Control, FI SEPTTR Type B Assay (100 g/ha) 3 DC
[9] = field isolate, low volume EC, 3 Day Protectant, wheat (Yuma), read-out: Disease Control, FI SEPTTR Type B Assay (100 g/ha) 3 DP

Compound | pest or weed control at 50 ppm [1, 4] | pest or weed control at 50 ppm [1, 5] | pest or weed control at 100 g/ha [2, 6] | pest or weed control at 100 g/ha [2, 7] | pest or weed control at 100 g/ha [3, 8] | pest or weed control at 100 g/ha [3, 9] | pest or weed control at 100 g/ha ([2]; SEPTTR standard laboratory isolate, low volume Type B assay, 3 Day Curative, wheat leaf blotch, read-out: Disease Control, SI SEPTTR Type B Assay (100 g/ha) 3 DC) | pest or weed control at 100 g/ha ([2]; SEPTTR standard laboratory isolate, low volume Type B assay, 3 Day Protectant, wheat leaf blotch, read-out: Disease Control, SI SEPTTR Type B Assay (100 g/ha) 3 DP) | pest or weed control at 100 g/ha ([3]; SEPTTR field isolate, low volume Type B assay, 3 Day Curative, wheat leaf blotch, read-out: Disease Control, FI SEPTTR Type B Assay (100 g/ha) 3 DC) | pest or weed control at 100 g/ha ([3]; SEPTTR field isolate, low volume Type B assay, 3 Day Protectant, wheat leaf blotch, read-out: Disease Control, FI SEPTTR Type B Assay (100 g/ha) 3 DP)
OC(c1cncnc1)(c1ccc(-c2ccc(OC(F)F)cc2)cn1)C1CC1 (centres unmarked) [Compound 60] | 80 to 100% | 80 to 100% | 80 to 100% | 80 to 100% | < 40% | 60 to 79% | – | – | – | –
CC(C)C(O)(c1cncnc1)c1ccc(-c2ccc(OC(F)(F)F)cc2)cn1 (centres unmarked) [Compound 63] | 80 to 100% | 80 to 100% | 80 to 100% | 80 to 100% | 40 to 59% | 60 to 79% | – | – | – | –
CC(C)C(O)(c1cncnc1)c1ccc(-c2ccc(OCC(F)(F)F)nc2)cn1 (centres unmarked) [Compound 64] | 80 to 100% | 80 to 100% | 80 to 100% | 80 to 100% | 60 to 79% | 80 to 100% | – | – | – | –
CC(C)(C)C(O)(c1cncnc1)c1ccc(-c2ccc(Cl)cc2)cn1 (centres unmarked) [Compound 65] | 80 to 100% | – | 80 to 100% | 80 to 100% | 60 to 79% | 60 to 79% | – | – | – | –
OC(c1cncnc1)(c1ccc(-c2ccc(OC(F)(F)F)cc2)cn1)C1CC1 (centres unmarked) [Compound 73] | 80 to 100% | – | 80 to 100% | 80 to 100% | 60 to 79% | 60 to 79% | – | – | – | –
CC(C)(C)C(O)(Cc1cncnc1)c1ccc(-c2ccc(OC(F)(F)F)cc2)cn1 (centres unmarked) [Compound 74] | 80 to 100% | – | 80 to 100% | 80 to 100% | 40 to 59% | < 40% | – | – | – | –
OC(c1cccnc1)(c1ccc(-c2ccc(OC(F)(F)F)cc2)cn1)C1CC1 (centres unmarked) [Compound 78] | 80 to 100% | – | 80 to 100% | 80 to 100% | 60 to 79% | 60 to 79% | – | – | – | –
Cc1ccc(C(O)(c2ccc(-c3ccc(OC(F)(F)F)cc3)cn2)C(C)(C)C)cn1 (centres unmarked) [Compound 148] | – | – | 60 to 79% | < 40% | 60 to 79% | < 40% | – | – | – | –
Cc1ccncc1C(O)(c1ccc(-c2ccc(OC(F)(F)F)cc2)cn1)C(C)(C)C (centres unmarked) [Compound 149] | – | – | 80 to 100% | 60 to 79% | 80 to 100% | 60 to 79% | – | – | – | –
Cc1ncccc1C(O)(c1ccc(-c2ccc(OC(F)(F)F)cc2)cn1)C(C)(C)C (centres unmarked) [Compound 151] | 80 to 100% | – | 80 to 100% | 80 to 100% | – | – | – | – | – | –
COc1ccc(-c2ccc(C(O)(c3cncnc3)C(C)(C)C)nc2)c(OC(F)(F)F)c1 (centres unmarked) [Compound 163] | 80 to 100% | – | – | – | 80 to 100% | 80 to 100% | – | – | – | –
COC(c1cncnc1)(c1ccc(-c2ccc(OC(F)(F)F)cc2)cn1)C(C)(C)C (centres unmarked) [Compound 277, 5-(1-methoxy-2,2-dimethyl-1-(5-(4-(trifluoromethoxy)phenyl)pyridin-2-yl)propyl)pyrimidine] | – | – | – | – | – | – | 80 to 100% | 80 to 100% | 80 to 100% | 80 to 100%
